Here are results for 3 compounds from ChEMBL document CHEMBL5653631, “A Potent and Selective ULK1 Inhibitor Suppresses Autophagy and Sensitizes Cancer Cells to Nutrient Stress” (iScience, 2018).

For experiment [1], the target named is Myosin light chain kinase 2, skeletal/cardiac muscle (Homo sapiens) (UniProt Q9H1R3). Nature of the experiment: Inhibition of human recombinant skMLCK at 40 nM in presence of ATP by radiometric assay relative to control.
The target of experiment [2] is T1, Mitogen-activated protein kinase kinase kinase 5 (Homo sapiens) (UniProt Q99683).
T1 sequence (whole entry): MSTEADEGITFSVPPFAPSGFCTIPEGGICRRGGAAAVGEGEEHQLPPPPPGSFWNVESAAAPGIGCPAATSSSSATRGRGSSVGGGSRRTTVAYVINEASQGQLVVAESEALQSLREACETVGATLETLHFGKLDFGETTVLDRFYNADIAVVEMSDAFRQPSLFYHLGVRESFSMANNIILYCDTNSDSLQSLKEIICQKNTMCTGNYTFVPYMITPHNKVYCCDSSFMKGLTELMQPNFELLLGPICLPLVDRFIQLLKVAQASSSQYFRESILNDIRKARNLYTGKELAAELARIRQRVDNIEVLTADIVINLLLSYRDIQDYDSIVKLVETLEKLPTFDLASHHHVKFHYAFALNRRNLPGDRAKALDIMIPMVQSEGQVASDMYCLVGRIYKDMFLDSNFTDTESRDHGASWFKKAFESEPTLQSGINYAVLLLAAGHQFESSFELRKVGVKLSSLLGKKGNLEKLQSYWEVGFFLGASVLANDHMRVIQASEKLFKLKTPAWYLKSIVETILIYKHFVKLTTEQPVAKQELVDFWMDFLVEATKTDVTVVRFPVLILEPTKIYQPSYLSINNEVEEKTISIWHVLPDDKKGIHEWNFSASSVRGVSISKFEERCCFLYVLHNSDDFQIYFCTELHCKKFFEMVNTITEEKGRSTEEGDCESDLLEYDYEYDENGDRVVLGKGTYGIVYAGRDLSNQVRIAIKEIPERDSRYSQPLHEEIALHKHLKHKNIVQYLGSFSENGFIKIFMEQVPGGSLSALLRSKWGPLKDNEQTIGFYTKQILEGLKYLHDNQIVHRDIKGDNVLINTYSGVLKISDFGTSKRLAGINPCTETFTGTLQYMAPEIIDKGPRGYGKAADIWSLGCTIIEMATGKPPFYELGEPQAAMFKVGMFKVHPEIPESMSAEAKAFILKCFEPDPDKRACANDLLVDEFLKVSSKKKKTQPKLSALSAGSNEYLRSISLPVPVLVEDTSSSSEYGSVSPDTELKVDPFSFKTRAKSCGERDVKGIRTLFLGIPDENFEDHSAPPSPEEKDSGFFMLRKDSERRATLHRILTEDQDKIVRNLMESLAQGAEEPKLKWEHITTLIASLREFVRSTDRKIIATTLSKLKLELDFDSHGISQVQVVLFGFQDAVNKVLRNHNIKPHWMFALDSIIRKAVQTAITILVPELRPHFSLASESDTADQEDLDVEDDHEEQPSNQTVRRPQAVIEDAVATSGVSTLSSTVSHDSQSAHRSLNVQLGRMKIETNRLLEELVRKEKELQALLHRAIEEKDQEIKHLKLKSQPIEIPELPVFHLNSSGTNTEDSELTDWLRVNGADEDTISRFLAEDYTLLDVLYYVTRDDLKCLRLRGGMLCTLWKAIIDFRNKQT
Put plainly: Inhibition of human recombinant MAP3K5 at 500 nM related to control ULK1.

Experiment [3] deals with Ribosomal protein S6 kinase alpha-6 (Homo sapiens) (UniProt Q9UK32). Put plainly: Inhibition of human recombinant RSK4 at 500 nM related to control ULK1.
Experiment [4] addresses Dual specificity protein kinase CLK3 (Homo sapiens) (UniProt P49761). Put plainly: Inhibition of human recombinant CLK3 at 500 nM in presence of ATP by radiometric assay relative to control.
Experiment [5] deals with T1, Mitogen-activated protein kinase kinase kinase 5 (Homo sapiens). Nature of the experiment: Inhibition of human recombinant MAP3K5 at 500 nM in presence of ATP by radiometric assay relative to control.
In experiment [6] the target is T2, Serine/threonine-protein kinase Nek11 (Homo sapiens) (UniProt Q8NG66).
T2 sequence (whole entry): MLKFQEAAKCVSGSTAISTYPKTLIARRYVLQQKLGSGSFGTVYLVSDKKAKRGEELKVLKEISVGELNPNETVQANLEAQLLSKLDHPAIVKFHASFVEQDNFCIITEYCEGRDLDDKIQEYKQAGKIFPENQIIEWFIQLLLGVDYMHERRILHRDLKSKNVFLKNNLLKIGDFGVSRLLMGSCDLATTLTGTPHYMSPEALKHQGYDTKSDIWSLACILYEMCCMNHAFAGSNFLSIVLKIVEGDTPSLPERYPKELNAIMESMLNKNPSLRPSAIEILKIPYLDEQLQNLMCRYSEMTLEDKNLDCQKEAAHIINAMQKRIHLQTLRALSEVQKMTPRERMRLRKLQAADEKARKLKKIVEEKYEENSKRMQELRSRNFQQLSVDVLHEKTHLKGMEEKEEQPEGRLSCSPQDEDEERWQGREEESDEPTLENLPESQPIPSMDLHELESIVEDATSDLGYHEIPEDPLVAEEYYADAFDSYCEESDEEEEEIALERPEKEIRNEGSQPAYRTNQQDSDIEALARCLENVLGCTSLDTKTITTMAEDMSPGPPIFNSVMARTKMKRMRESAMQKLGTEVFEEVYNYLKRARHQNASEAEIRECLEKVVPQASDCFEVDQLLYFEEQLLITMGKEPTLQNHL
Put plainly: Inhibition of human recombinant NEK11 at 500 nM in presence of ATP by radiometric assay relative to control.

For experiment [7], the target named is G protein-coupled receptor kinase 5 (Homo sapiens) (UniProt P34947). Nature of the experiment: Inhibition of human recombinant GPRK5 at 500 nM in presence of ATP by radiometric assay relative to control.
Experiment [8] concerns the target Serine/threonine-protein kinase NIM1 (Homo sapiens) (UniProt Q8IY84). Put plainly: Inhibition of human recombinant NIM1 at 500 nM related to control ULK1.
In experiment [9] the target is Interleukin-1 receptor-associated kinase 1 (Homo sapiens) (UniProt P51617). Put plainly: Inhibition of human recombinant IRAK1 at 15 nM related to control ULK1.
Chain of Interleukin-1 receptor-associated kinase 1 (Homo sapiens) (P51617 whole entry, looked up): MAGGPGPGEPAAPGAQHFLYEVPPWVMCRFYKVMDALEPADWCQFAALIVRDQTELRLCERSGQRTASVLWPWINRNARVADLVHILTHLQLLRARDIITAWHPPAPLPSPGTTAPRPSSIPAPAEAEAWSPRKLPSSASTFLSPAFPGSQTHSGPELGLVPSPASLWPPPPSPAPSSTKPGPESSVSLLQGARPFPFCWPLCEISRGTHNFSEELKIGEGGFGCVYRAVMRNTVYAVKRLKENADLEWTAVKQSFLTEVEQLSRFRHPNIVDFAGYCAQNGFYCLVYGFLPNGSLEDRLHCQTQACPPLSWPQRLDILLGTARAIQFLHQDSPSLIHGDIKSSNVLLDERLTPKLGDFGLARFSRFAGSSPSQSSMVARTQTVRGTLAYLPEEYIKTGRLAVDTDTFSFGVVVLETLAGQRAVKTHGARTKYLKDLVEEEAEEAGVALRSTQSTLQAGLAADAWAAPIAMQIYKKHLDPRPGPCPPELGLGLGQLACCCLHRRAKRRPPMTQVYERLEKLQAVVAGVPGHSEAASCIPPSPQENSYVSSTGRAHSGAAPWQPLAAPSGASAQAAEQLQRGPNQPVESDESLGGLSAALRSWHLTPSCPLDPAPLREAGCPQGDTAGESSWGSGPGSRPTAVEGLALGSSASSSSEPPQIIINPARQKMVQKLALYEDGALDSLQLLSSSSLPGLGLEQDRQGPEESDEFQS

Chain of G protein-coupled receptor kinase 5 (Homo sapiens) (P34947 whole entry, looked up): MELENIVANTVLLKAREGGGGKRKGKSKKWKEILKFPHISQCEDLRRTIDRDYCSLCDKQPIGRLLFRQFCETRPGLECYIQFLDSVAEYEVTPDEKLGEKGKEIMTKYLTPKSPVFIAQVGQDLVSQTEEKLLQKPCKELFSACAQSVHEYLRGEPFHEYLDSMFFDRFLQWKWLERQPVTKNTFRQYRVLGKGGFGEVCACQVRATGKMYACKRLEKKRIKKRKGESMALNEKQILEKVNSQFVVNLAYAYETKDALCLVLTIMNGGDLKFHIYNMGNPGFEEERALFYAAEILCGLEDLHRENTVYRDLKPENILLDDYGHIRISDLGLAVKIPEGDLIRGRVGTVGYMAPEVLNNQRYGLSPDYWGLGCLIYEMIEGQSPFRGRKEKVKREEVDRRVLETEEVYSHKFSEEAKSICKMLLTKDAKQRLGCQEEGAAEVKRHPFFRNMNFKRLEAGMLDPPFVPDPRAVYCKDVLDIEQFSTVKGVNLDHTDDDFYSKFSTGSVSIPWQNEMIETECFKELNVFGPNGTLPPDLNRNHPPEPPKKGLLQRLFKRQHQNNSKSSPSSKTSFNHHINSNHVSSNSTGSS
Chain of Myosin light chain kinase 2, skeletal/cardiac muscle (Homo sapiens) (Q9H1R3 whole entry): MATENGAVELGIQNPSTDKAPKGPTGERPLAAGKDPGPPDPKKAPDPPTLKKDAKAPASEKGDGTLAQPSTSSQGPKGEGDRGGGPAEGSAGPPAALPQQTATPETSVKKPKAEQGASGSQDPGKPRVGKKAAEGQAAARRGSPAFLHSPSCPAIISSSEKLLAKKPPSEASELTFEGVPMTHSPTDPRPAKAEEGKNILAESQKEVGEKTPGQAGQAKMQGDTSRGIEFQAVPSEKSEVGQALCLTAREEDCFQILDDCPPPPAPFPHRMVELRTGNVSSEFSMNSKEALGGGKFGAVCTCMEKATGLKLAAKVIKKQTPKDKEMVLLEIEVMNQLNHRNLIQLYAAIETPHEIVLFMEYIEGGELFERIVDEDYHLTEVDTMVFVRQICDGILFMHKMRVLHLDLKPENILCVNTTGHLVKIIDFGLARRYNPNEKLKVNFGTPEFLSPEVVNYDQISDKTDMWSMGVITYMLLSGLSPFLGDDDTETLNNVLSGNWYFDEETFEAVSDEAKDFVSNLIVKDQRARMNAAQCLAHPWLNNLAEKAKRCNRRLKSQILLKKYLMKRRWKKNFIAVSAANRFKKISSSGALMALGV
Chain of Ribosomal protein S6 kinase alpha-6 (Homo sapiens) (Q9UK32 whole entry): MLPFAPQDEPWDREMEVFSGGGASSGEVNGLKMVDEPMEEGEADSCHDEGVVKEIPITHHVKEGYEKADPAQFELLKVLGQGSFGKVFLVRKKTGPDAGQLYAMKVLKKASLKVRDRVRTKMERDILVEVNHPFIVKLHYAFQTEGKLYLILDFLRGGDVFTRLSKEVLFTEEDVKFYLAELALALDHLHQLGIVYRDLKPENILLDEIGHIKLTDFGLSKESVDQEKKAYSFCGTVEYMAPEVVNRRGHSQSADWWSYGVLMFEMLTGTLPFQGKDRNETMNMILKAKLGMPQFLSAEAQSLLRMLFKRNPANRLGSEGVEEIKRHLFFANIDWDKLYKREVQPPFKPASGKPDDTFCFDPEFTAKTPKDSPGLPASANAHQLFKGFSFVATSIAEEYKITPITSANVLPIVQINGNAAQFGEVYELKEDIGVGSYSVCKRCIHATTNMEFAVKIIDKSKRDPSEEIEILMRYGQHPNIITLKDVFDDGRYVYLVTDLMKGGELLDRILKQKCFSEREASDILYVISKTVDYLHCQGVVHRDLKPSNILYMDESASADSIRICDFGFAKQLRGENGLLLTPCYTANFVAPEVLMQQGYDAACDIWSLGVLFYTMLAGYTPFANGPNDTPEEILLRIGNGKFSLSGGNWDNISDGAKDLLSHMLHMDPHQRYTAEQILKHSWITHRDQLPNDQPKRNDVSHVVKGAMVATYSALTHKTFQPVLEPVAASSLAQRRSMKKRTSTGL
Chain of Dual specificity protein kinase CLK3 (Homo sapiens) (P49761 whole entry, looked up): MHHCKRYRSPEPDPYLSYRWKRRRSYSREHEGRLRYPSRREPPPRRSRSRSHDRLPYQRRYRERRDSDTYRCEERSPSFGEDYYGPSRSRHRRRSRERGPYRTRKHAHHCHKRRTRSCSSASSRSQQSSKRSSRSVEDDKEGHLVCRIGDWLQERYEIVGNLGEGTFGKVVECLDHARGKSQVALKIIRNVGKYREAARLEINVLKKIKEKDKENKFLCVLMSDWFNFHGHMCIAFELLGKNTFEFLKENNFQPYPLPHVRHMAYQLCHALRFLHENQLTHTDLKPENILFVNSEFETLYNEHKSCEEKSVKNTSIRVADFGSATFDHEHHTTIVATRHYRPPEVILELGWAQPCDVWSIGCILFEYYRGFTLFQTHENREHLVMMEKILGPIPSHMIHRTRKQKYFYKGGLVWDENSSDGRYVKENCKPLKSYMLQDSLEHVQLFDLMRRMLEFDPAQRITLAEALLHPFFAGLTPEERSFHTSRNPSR
Chain of Serine/threonine-protein kinase NIM1 (Homo sapiens) (Q8IY84 whole entry): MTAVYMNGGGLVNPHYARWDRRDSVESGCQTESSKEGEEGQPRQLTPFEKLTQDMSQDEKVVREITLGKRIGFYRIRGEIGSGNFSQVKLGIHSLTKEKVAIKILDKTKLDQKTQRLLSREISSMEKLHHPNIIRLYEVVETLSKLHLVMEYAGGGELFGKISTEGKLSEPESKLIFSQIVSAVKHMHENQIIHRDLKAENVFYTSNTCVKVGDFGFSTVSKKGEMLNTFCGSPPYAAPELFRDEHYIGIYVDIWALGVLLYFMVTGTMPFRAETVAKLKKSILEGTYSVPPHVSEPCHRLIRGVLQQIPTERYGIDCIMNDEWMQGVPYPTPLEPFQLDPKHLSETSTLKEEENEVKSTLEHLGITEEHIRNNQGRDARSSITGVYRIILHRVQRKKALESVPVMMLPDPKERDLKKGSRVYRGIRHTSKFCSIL

Broadly, the inhibition is how much of the control response was suppressed. With `O=C(N[C@@H](C1CC1)C(F)(F)F)c1cc(-c2cnn3cc(-c4ccc(F)cc4)cnc23)cs1`, in experiment [1], the inhibition turned out to be 0%.

Take `CNC(=O)c1ccccc1Oc1nc(Nc2cc(OC)c(OC)c(OC)c2)ncc1Br`: the fold change (FC) was 0 in experiment [2], 0.45 in experiment [3] and 0 in experiment [8]. The inhibition in experiment [4] was 0%; in [5], 0%; in experiment [6] it was 8%; in experiment [7] it was 1%.

`CC(C)[C@H](NC(=O)c1cc(-c2cnn3cc(-c4ccc(OCCN5CCCCC5)cc4)cnc23)cs1)C(F)(F)F`: in experiment [9], the fold change (FC) stood at 0.41.
